# From PubChem BioAssay AID1963449 (Molecular Pharmacology Branch, DTP, NCI, 2024)
# Values joined by “and” are separate entries in the source; they are usually repeats but may differ in a detail not shown here. Equal entries are not always repeated.
# Tested on: 596521-263-R-J1-PDC complex spheroid growth
# Test: Anticancer human tumor 596521-263-R-J1-PDC patient-derived soft tissue sarcoma cell line growth inhibition [Asc]
# Conditions: for IC50: curve of first compound; for viability, T/C: stronger effect = lower value
# Outline: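 Concentration series start at each agent's clinical Cmax, or at 10 microM when none is established, and drop in half-log steps; agents are applied alone or together to complex spheroids built with HUVEC and hMSC.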
# 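Note: spheroids exposed to compounds for 7 days.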
smiles,measurement,setting,value
O=C(c1ccc(F)c(F)c1Nc1ccc(I)cc1F)N1CC(O)([C@@H]2CCCCN2)C1 + Cc1c(S(C)(=O)=O)c(-c2cc(F)cc(N3CCN(c4ccc(NS(=O)(=O)c5ccc(NC(CCN6CCC(C(=O)OCCCP(=O)(O)O)CC6)CSc6ccccc6)c(S(=O)(=O)C(F)(F)F)c5)cc4)CC3)c2)c(-c2ccc(Cl)cc2)n1C(C)C,IC50,second compound 0.0316 µM,349 nM
same,IC50,second compound 0.1 µM,236 nM
same,IC50,second compound 0.316 µM,209 nM
same,IC50,second compound 1 µM,172 nM
same,IC50,second compound 3.16 µM,124 nM
same,IC50,second compound 10 µM,55.5 nM
same,"viability, T/C","second compound 0.0316 µM, first compound 0.00316 µM",96%
same,"viability, T/C","second compound 0.0316 µM, first compound 0.01 µM",93%
same,"viability, T/C","second compound 0.0316 µM, first compound 0.0316 µM",93.3%
same,"viability, T/C","second compound 0.0316 µM, first compound 0.1 µM",74.9%
same,"viability, T/C","second compound 0.0316 µM, first compound 0.316 µM",52.7%
same,"viability, T/C","second compound 0.0316 µM, first compound 1 µM",30.2%
same,"viability, T/C","second compound 0.1 µM, first compound 0.00316 µM",101%
same,"viability, T/C","second compound 0.1 µM, first compound 0.01 µM",102%
same,"viability, T/C","second compound 0.1 µM, first compound 0.0316 µM",103%
same,"viability, T/C","second compound 0.1 µM, first compound 0.1 µM",70.2%
same,"viability, T/C","second compound 0.1 µM, first compound 0.316 µM",45.5%
same,"viability, T/C","second compound 0.1 µM, first compound 1 µM",29.9%
same,"viability, T/C","second compound 0.316 µM, first compound 0.00316 µM",87.1%
same,"viability, T/C","second compound 0.316 µM, first compound 0.01 µM",84%
same,"viability, T/C","second compound 0.316 µM, first compound 0.0316 µM",87.1%
same,"viability, T/C","second compound 0.316 µM, first compound 0.1 µM",71.1%
same,"viability, T/C","second compound 0.316 µM, first compound 0.316 µM",38.1%
same,"viability, T/C","second compound 0.316 µM, first compound 1 µM",22.9%
same,"viability, T/C","second compound 1 µM, first compound 0.00316 µM",83.3%
same,"viability, T/C","second compound 1 µM, first compound 0.01 µM",70.9%
same,"viability, T/C","second compound 1 µM, first compound 0.0316 µM",84.8%
same,"viability, T/C","second compound 1 µM, first compound 0.1 µM",66.3%
same,"viability, T/C","second compound 1 µM, first compound 0.316 µM",31.4%
same,"viability, T/C","second compound 1 µM, first compound 1 µM",21.8%
same,"viability, T/C","second compound 3.16 µM, first compound 0.00316 µM",62.8%
same,"viability, T/C","second compound 3.16 µM, first compound 0.01 µM",71.4%
same,"viability, T/C","second compound 3.16 µM, first compound 0.0316 µM",62.2%
same,"viability, T/C","second compound 3.16 µM, first compound 0.1 µM",55.8%
same,"viability, T/C","second compound 3.16 µM, first compound 0.316 µM",26.7%
same,"viability, T/C","second compound 3.16 µM, first compound 1 µM",16.8%
same,"viability, T/C","second compound 10 µM, first compound 0.00316 µM",54.1%
same,"viability, T/C","second compound 10 µM, first compound 0.01 µM",57.4%
same,"viability, T/C","second compound 10 µM, first compound 0.0316 µM",55%
same,"viability, T/C","second compound 10 µM, first compound 0.1 µM",45%
same,"viability, T/C","second compound 10 µM, first compound 0.316 µM",26.8%
same,"viability, T/C","second compound 10 µM, first compound 1 µM",18.6%
Cn1ncnc1[C@H]1c2n[nH]c(=O)c3cc(F)cc(c23)N[C@@H]1c1ccc(F)cc1 + CCN1C(C(=O)NC23CCC(C(=O)O)(CC2)CC3)C(c2cccc(Cl)c2F)C2(C(=O)Nc3cc(Cl)ccc32)C12CCCCC2,IC50,second compound 0.00949 µM,> 100 nM
same,IC50,second compound 0.03 µM,> 100 nM
same,IC50,second compound 0.0949 µM,> 100 nM
same,IC50,second compound 0.3 µM,> 100 nM
same,IC50,second compound 0.949 µM,> 100 nM
same,IC50,second compound 3 µM,> 100 nM
same,"viability, T/C","second compound 0.00949 µM, first compound 0.000316 µM",109%
same,"viability, T/C","second compound 0.00949 µM, first compound 0.001 µM",94.8%
same,"viability, T/C","second compound 0.00949 µM, first compound 0.00316 µM",96.6%
same,"viability, T/C","second compound 0.00949 µM, first compound 0.01 µM",91.8%
same,"viability, T/C","second compound 0.00949 µM, first compound 0.0316 µM",88.4%
same,"viability, T/C","second compound 0.00949 µM, first compound 0.1 µM",81.8%
same,"viability, T/C","second compound 0.03 µM, first compound 0.000316 µM",103%
same,"viability, T/C","second compound 0.03 µM, first compound 0.001 µM",98.1%
same,"viability, T/C","second compound 0.03 µM, first compound 0.00316 µM",100%
same,"viability, T/C","second compound 0.03 µM, first compound 0.01 µM",105%
same,"viability, T/C","second compound 0.03 µM, first compound 0.0316 µM",90.1%
same,"viability, T/C","second compound 0.03 µM, first compound 0.1 µM",81.1%
same,"viability, T/C","second compound 0.0949 µM, first compound 0.000316 µM",104%
same,"viability, T/C","second compound 0.0949 µM, first compound 0.001 µM",102%
same,"viability, T/C","second compound 0.0949 µM, first compound 0.00316 µM",106%
same,"viability, T/C","second compound 0.0949 µM, first compound 0.01 µM",88.7%
same,"viability, T/C","second compound 0.0949 µM, first compound 0.0316 µM",87.8%
same,"viability, T/C","second compound 0.0949 µM, first compound 0.1 µM",78.6%
same,"viability, T/C","second compound 0.3 µM, first compound 0.000316 µM",104%
same,"viability, T/C","second compound 0.3 µM, first compound 0.001 µM",99.9%
same,"viability, T/C","second compound 0.3 µM, first compound 0.00316 µM",110%
same,"viability, T/C","second compound 0.3 µM, first compound 0.01 µM",108%
same,"viability, T/C","second compound 0.3 µM, first compound 0.0316 µM",104%
same,"viability, T/C","second compound 0.3 µM, first compound 0.1 µM",87.3%
same,"viability, T/C","second compound 0.949 µM, first compound 0.000316 µM",102%
same,"viability, T/C","second compound 0.949 µM, first compound 0.001 µM",91.2%
same,"viability, T/C","second compound 0.949 µM, first compound 0.00316 µM",91.2%
same,"viability, T/C","second compound 0.949 µM, first compound 0.01 µM",92.4%
same,"viability, T/C","second compound 0.949 µM, first compound 0.0316 µM",99.4%
same,"viability, T/C","second compound 0.949 µM, first compound 0.1 µM",85.5%
same,"viability, T/C","second compound 3 µM, first compound 0.000316 µM",76.4%
same,"viability, T/C","second compound 3 µM, first compound 0.001 µM",78.5%
same,"viability, T/C","second compound 3 µM, first compound 0.00316 µM",80.6%
same,"viability, T/C","second compound 3 µM, first compound 0.01 µM",70.3%
same,"viability, T/C","second compound 3 µM, first compound 0.0316 µM",75.3%
same,"viability, T/C","second compound 3 µM, first compound 0.1 µM",65.7%
NC(=O)C(=Cn1cnc(-c2cc(C(F)(F)F)cc(C(F)(F)F)c2)n1)c1cncnc1,"viability, T/C",compound 0.000949 µM,104% and 98.5% and 48.5%
same,"viability, T/C",compound 0.003 µM,91.6% and 94.9% and 49.6%
same,"viability, T/C",compound 0.00949 µM,87.5% and 83.8% and 46.9%
same,"viability, T/C",compound 0.03 µM,58.5% and 51.1% and 32.2%
same,"viability, T/C",compound 0.0949 µM,18.1% and 18.5% and 16.5%
same,"viability, T/C",compound 0.3 µM,11.2% and 10.3% and 10%
